The values that follow come from patent US20070276032A1, “Use of 8-Prenylnaringenin for Hormone Replacement Therapy” (priority 2003, published 2007).

This assay deals with ERE-Luc. The assay can be described thus: Estrogenic activity in the estrogen reporter mouse ERE-Luc model, luciferase activity in organs (Example 5). It counts as in vivo, mice. The method, then: In order to avoid experimental noise male animals were used.
Fourtyfive heterozygous male ERE-Luc mice of two months of age were fed with soy-free diet for two weeks before assigning them to each experimental group then all the mice were injected intraperitoneally (i.p.) with 250 μl of an oily solution containing the following compounds: • 1. Experimental group 1: vehicle • 2. Experimental group 2: 17β-estradiol at 1.5 μg/kg • 3. Experimental group 3: 2S(−)-8-PN at 30 mg/kg • 4. […] Experimental group 5: genistein at 30 mg/kg.
The treatment was carried out in experimental groups of three mice each and repeated three times (therefore numbers reflect the average of […] determinations on a total of 9 animals).
Six hours after the injection, mice were sacrificed by cervical dislocation and organs were dissected and frozen on dry ice. The following organs were analyzed for lucifererase activity by enzymatic assay: prostate, liver, bone, brain.
Data represent means ±standard deviation of N=9 animals per group.
Analysis of variance (ANOVA) for overall comparison was followed by Tukey test for paired comparisons. All statistical procedures were carried out with Systat and SAS (*P<0.05; **P<0.01).

The mark [1] stands for this setting: ERE-Luc mice, at the dosages used.

As to `CC(C)=CCc1c(O)cc(O)c2c1O[C@H](c1ccc(O)cc1)CC2=O` [2S(−)8-PN, 2S(−) 8-Prenylnaringenin], under setting [1], the “agonist profile in bone and prostate compared with the other compounds” value is “much stronger agonist profile in bone and prostate when compared to the other compounds”; the “estrogenic activity in liver compared with the other compounds” value is on record as “almost identical to that of the other compounds”. Moreover, the “Luciferase activity, Bone” value (male ERE-Luc mice, i.p. 30 mg/kg, six hours after the injection, controls 2.8) was 5.5 ** arbitrary units. In addition, where the note is “male ERE-Luc mice, i.p. 30 mg/kg, six hours after the injection, controls 6.5”, the “Luciferase activity, Brain” value is 8.0 arbitrary units. In addition, the “Luciferase activity, Liver” value (male ERE-Luc mice, i.p. 30 mg/kg, six hours after the injection, controls 7.6) is 12.5 ** arbitrary units.
